# According to patent publication US11578061B2, “Inhibitors of LRRK2 kinase” (Halia Therapeutics, Inc., priority 2021, dated 2023):
# Molecular target: recombinant human LRRK2 (catalytic domain only [amino acids 970-2527], GST-tagged) (Homo sapiens (Human), UniProt Q5S007)
# Assay: LRRK2 Enzymatic Assay
# Type: biochemical
# Settings: LRRKtide substrate, [32P]-ATP
# Outline: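 GST-tagged catalytic domain (aa 970-2527) at 30 nM with 20 μM LRRKtide in HEPES pH 7.5/MgCl2 buffer, 1% DMSO; compounds (10 μM to 0.5 nM) preincubated 20 min, then [32P]-ATP added for 2 h at room temperature. P81 phosphocellulose capture; activity as % of vehicle, IC50 by curve fit.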
# Chain of recombinant human LRRK2 (catalytic domain only [amino acids 970-2527], GST-tagged) (Q5S007 970-2527): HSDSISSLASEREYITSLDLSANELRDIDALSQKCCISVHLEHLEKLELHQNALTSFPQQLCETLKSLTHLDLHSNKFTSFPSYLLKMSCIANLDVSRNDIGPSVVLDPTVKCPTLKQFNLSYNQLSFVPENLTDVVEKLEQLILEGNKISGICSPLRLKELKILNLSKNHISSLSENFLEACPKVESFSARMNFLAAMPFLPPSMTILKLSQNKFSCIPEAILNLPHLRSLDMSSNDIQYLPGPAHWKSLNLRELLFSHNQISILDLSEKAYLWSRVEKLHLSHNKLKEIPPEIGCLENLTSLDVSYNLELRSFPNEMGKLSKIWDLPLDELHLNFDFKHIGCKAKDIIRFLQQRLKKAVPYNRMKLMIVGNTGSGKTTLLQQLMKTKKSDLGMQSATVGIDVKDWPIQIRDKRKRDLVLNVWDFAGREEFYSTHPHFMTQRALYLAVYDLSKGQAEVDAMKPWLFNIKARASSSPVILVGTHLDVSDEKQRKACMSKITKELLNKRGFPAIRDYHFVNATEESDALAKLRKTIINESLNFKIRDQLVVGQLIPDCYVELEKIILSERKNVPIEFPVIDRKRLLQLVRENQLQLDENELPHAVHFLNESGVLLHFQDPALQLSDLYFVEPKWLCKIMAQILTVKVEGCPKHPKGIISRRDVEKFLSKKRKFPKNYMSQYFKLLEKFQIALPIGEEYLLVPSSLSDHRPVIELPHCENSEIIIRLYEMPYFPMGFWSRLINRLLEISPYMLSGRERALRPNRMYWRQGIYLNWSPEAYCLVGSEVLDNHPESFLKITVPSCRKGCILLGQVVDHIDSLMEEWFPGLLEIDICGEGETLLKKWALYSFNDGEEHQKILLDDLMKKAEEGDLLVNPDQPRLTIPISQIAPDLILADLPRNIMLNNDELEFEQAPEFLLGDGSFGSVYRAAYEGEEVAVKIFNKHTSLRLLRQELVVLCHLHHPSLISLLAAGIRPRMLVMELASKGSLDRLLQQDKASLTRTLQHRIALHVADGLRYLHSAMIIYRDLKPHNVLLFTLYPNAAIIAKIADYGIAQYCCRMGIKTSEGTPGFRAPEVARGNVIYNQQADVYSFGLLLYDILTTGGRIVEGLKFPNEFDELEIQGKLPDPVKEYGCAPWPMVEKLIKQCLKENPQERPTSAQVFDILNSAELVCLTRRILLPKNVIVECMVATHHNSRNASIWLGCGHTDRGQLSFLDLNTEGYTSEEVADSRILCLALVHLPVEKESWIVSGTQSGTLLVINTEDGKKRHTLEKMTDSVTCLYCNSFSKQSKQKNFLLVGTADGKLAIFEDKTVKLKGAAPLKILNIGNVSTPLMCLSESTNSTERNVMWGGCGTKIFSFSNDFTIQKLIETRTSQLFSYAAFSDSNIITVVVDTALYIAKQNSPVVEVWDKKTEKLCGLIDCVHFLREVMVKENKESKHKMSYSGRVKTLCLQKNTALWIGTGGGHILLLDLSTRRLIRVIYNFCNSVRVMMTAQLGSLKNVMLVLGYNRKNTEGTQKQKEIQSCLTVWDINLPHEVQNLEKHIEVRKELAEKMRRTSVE
row,IC50,SMILES
1,< 50 nM,"O=C(C(F)F)N1CCC(COc2nc(Nc3ccc(N4CCOCC4)cc3)ncc2Cl)CC1 [Example 109, 1-(4-(((5-chloro-2-((4-morpholino-phenyl)amino)pyrimidin-4-yl)oxy)methyl)piperidin-1-yl)-2,2-difluoro-ethan-1-one]"
2,< 50 nM,"O=C(C(F)F)N1CCC(COc2nc(Nc3cccc(N4CCOCC4)c3)ncc2Cl)CC1 [Example 110, 1-(4-(((5-chloro-2-((3-morpholino-phenyl)amino)pyrimidin-4-yl)oxy)methyl)piperidin-1-yl)-2,2-difluoro-ethan-1-one]"
3,< 50 nM,"Cc1nn(C(C)(C)C#N)cc1Nc1ncc(Cl)c(OCC2CCN(C(=O)C(F)F)CC2)n1 [Example 111, 2-(4-((5-chloro-4-((1-(2,2-difluoro-acetyl)piperidin-4-yl)methoxy)pyrimidin-2-yl)amino)-3-methyl-1H-pyrazol-1-yl)-2-methyl-propanenitrile]"
4,50 to 200 nM,"O=C(N1CCC(COc2nc(Nc3ccc(N4CCOCC4)cc3)ncc2Cl)CC1)C(F)(F)F [Example 112, 1-(4-(((5-chloro-2-((4-morpholino-phenyl)amino)pyrimidin-4-yl)oxy)methyl)piperidin-1-yl)-2,2,2-trifluoro-ethan-1-one]"
5,> 400 nM,"FC(F)(F)CN1CCC(COc2nc(Nc3ccc(N4CCOCC4)cc3)ncc2Cl)CC1 [Example 114, 5-chloro-N-(4-morpholino-phenyl)-4-((1-(2,2,2-trifluoroethyl)piperidin-4-yl)methoxy) pyrimidin-2-amine]"
6,200 to 400 nM,"CC(N[C@H]1CC[C@H](COc2nc(Nc3ccc(N4CCOCC4)cc3)ncc2F)CC1)C(F)(F)F (stereo partly drawn) [Example 116, 5-fluoro-N-(4-morpholino-phenyl)-4-(((1R,4R)-4-((1,1,1-trifluoro-propan-2-yl)amino)cyclohexyl)methoxy) pyrimidin-2-amine]"
7,200 to 400 nM,"OC1CCC(COc2ccnc(Nc3ccc(N4CCOCC4)cc3)n2)CC1 (stereo not shown) [Example 117, 4-(((2-((4-morpholinophenyl)amino)pyrimidin-4-yl)oxy)methyl)cyclohexanol]"
8,50 to 200 nM,"C[C@@H]1CN(c2ccc(Nc3nccc(OCC4CCC(O)CC4)n3)cc2)C[C@H](C)O1 (stereo partly drawn) [Example 118, 4-(((2-((4-((2S,6R)-2,6-dimethylmorpholino)phenyl)amino)pyrimidin-4-yl)oxy)methyl)cyclohexan-1-ol]"
9,200 to 400 nM,"Cc1nn(C(C)(C)C#N)cc1Nc1nccc(OCC2CCC(O)CC2)n1 (stereo not shown) [Example 119, 2-(4-((4-((4-hydroxycyclohexyl)methoxy)pyrimidin-2-yl)amino)-3-methyl-1H-pyrazol-1-yl)-2-methylpropanenitrile]"
10,< 50 nM,"C[C@@H]1CN(c2ccc(Nc3ncc(Cl)c(OCC4CCC(O)CC4)n3)cc2)C[C@H](C)O1 (stereo partly drawn) [Example 120, 4-(((5-chloro-2-((4-((2S,6R)-2,6-dimethylmorpholino)phenyl)amino)pyrimidin-4-yl)oxy)methyl)cyclohexan-1-ol]"
11,< 50 nM,"Cc1nn(C(C)(C)C#N)cc1Nc1ncc(Cl)c(OCC2CCC(O)CC2)n1 (stereo not shown) [Example 121, 2-(4-((5-chloro-4-((4-hydroxycyclohexyl)methoxy)pyrimidin-2-yl)amino)-3-methyl-1H-pyrazol-1-yl)-2-methylpropanenitrile]"
12,< 50 nM,"Cc1nn(C2CC(C#N)C2)cc1Nc1ncc(Cl)c(OCC2CCC(O)CC2)n1 (stereo not shown) [Example 122, 3-(4-((5-chloro-4-((4-hydroxycyclohexyl)methoxy)pyrimidin-2-yl)amino)-3-methyl-1H-pyrazol-1-yl)cyclobutane-1-carbonitrile]"
13,50 to 200 nM,"OC1CCC(COc2nc(Nc3ccc(N4CCOCC4)cc3)ncc2F)CC1 (stereo not shown) [Example 123, 4-(((5-fluoro-2-((4-morpholinophenyl)amino)pyrimidin-4-yl)oxy)methyl)cyclohexan-1-ol]"
14,< 50 nM,"C[C@@H]1CN(c2ccc(Nc3ncc(F)c(OCC4CCC(O)CC4)n3)cc2)C[C@H](C)O1 (stereo partly drawn) [Example 124, 4-(((2-((4-((2S,6R)-2,6-dimethylmorpholino)phenyl)amino)-5-fluoropyrimidin-4-yl)oxy)methyl)cyclohexan-1-ol]"
15,< 50 nM,"Cc1nn(C(C)(C)C#N)cc1Nc1ncc(F)c(OC[C@H]2CC[C@H](O)CC2)n1 [Example 125, 2-(4-((5-fluoro-4-(((1R,4R)-4-hydroxycyclohexyl)methoxy)pyrimidin-2-yl)amino)-3-methyl-1H-pyrazol-1-yl)-2-methylpropanenitrile]"
16,< 50 nM,"Cc1nn(C(C)(C)C#N)cc1Nc1ncc(F)c(OC[C@H]2CC[C@@H](O)CC2)n1 [Example 126, 2-(4-((5-fluoro-4-(((1S,4S)-4-hydroxycyclohexyl)methoxy)pyrimidin-2-yl)amino)-3-methyl-1H-pyrazol-1-yl)-2-methylpropanenitrile]"
17,< 50 nM,"Cc1nn(C(C)(C)C#N)cc1Nc1ncc(F)c(OCC2CCC(O)C2)n1 (stereo not shown) [Example 127, 2-(4-((5-fluoro-4-((3-hydroxycyclopentyl)methoxy)pyrimidin-2-yl)amino)-3-methyl-1H-pyrazol-1-yl)-2-methylpropanenitrile]"

row,IC50,SMILES
1,< 50 nM,"Cc1cnc(Nc2ccc(N3C[C@@H](C)O[C@@H](C)C3)cc2)nc1OCC1CCC(O)CC1 (stereo partly drawn) [Example 128, 4-(((2-((4-((2S,6R)-2,6-dimethylmorpholino)phenyl)amino)-5-methylpyrimidin-4-yl)oxy)methyl)cyclohexan-1-ol]"
2,< 50 nM,"C[C@@H]1CN(c2ccc(Nc3ncc(C4CC4)c(OCC4CCC(O)CC4)n3)cc2)C[C@H](C)O1 (stereo partly drawn) [Example 129, 4-(((5-cyclopropyl-2-((4-((2S,6R)-2,6-dimethylmorpholino)phenyl)amino)pyrimidin-4-yl)oxy)methyl)cyclohexan-1-ol]"
3,50 to 200 nM,"Cc1nn(C(C)(C)C#N)cc1Nc1nccc(OCC2CCC(O)C2)n1 (stereo not shown) [Example 130, 2-(4-((4-((3-hydroxycyclopentyl)methoxy)pyrimidin-2-yl)amino)-3-methyl-1H-pyrazol-1-yl)-2-methylpropanenitrile]"
4,> 400 nM,"CCN1CCN(Cc2ccc(Nc3ncc(Cl)c(OCC4CCC(O)CC4)n3)nc2)CC1 (stereo not shown) [Example 131, 4-(((5-chloro-2-((5-((4-ethylpiperazin-1-yl)methyl)pyridin-2-yl)amino)pyrimidin-4-yl)oxy)methyl)cyclohexan-1-ol]"
5,50 to 200 nM,"CCN1CCN(c2ccc(Nc3ncc(Cl)c(OCC4CCC(O)CC4)n3)nc2)CC1 (stereo not shown) [Example 132, 4-(((5-chloro-2-((5-(4-ethylpiperazin-1-yl)pyridin-2-yl)amino)pyrimidin-4-yl)oxy)methyl)cyclohexan-1-ol]"
6,> 400 nM,"CCN1CCN(c2ccc(Nc3nccc(OCC4CCC(O)CC4)n3)nc2)CC1 (stereo not shown) [Example 133, 4-(((2-((5-(4-ethylpiperazin-1-yl)pyridin-2-yl)amino)pyrimidin-4-yl)oxy)methyl)cyclohexan-1-ol]"
7,< 50 nM,"OC1CC2(C1)CC(COc1nc(Nc3ccc(N4CCOCC4)cc3)ncc1F)C2 (stereo not shown) [Example 134, 6-(((5-fluoro-2-((4-morpholinophenyl)amino)pyrimidin-4-yl)oxy)methyl)spiro[3.3]heptan-2-ol]"
8,< 50 nM,"Cc1nn(C(C)(C)C#N)cc1Nc1ncc(Cl)c(OCC2CCC(C)(O)CC2)n1 (stereo not shown) [Example 135, 2-(4-((5-chloro-4-((4-hydroxy-4-methylcyclohexyl)methoxy)pyrimidin-2-yl)amino)-3-methyl-1H-pyrazol-1-yl)-2-methylpropanenitrile]"
9,50 to 200 nM,"CC(C)(O)[C@H]1CC[C@H](COc2ccnc(Nc3ccc(N4CCOCC4)cc3)n2)CC1 [Example 136, 2-((1R,4R)-4-(((2-((4-morpholinophenyl)amino)pyrimidin-4-yl)oxy)methyl)cyclohexyl)propan-2-ol]"
10,< 50 nM,"CC(C)(O)[C@H]1CC[C@H](COc2nc(Nc3ccc(N4CCOCC4)cc3)ncc2Cl)CC1 [Example 137, 2-((1R,4R)-4-(((5-chloro-2-((4-morpholinophenyl)amino)pyrimidin-4-yl)oxy)methyl)cyclohexyl)propan-2-ol]"
11,< 50 nM,"Cc1nn(C(C)(C)C#N)cc1Nc1ncc(Cl)c(OC[C@H]2CC[C@H](C(C)(C)O)CC2)n1 [Example 138, 2-(4-((5-chloro-4-(((1R,4R)-4-(2-hydroxypropan-2-yl)cyclohexyl)methoxy)pyrimidin-2-yl)amino)-3-methyl-1H-pyrazol-1-yl)-2-methylpropanenitrile]"
12,50 to 200 nM,"OCC1CCC(COc2ccnc(Nc3ccc(N4CCOCC4)cc3)n2)CC1 (stereo not shown) [Example 139, (4-(((2-((4-morpholinophenyl)amino)pyrimidin-4-yl)oxy)methyl)cyclohexyl)methanol22]"
13,> 400 nM,"OC12CCC(COc3ccnc(Nc4ccc(N5CCOCC5)cc4)n3)(CC1)CC2 [Example 140, 4-(((2-((4-morpholinophenyl)amino)pyrimidin-4-yl)oxy)methyl)bicyclo[2.2.2]octan-1-ol]"
14,50 to 200 nM,"C[C@@H]1CN(c2ccc(Nc3nccc(OCC4CCC(CO)CC4)n3)cc2)C[C@H](C)O1 (stereo partly drawn) [Example 141, (4-(((2-((4-((2R,6S)-2,6-dimethylmorpholino)phenyl)amino)pyrimidin-4-yl)oxy)methyl)cyclohexyl)methanol]"
15,> 400 nM,"C[C@@H]1CN(c2ccc(Nc3nccc(OCC45CCC(O)(CC4)CC5)n3)cc2)C[C@H](C)O1 [Example 142, 4-(((2-((4-((2S,6R)-2,6-dimethylmorpholino)phenyl)amino)pyrimidin-4-yl)oxy)methyl)bicyclo[2.2.2]octan-1-ol]"
16,50 to 200 nM,"C[C@@H]1CN(c2ccc(Nc3ncc(F)c(OCC45CCC(O)(CC4)CC5)n3)cc2)C[C@H](C)O1 [Example 143, 4-(((2-((4-((2S,6R)-2,6-dimethylmorpholino)phenyl)amino)-5-fluoropyrimidin-4-yl)oxy)methyl)bicyclo[2.2.2]octan-1-ol]"

row,SMILES,IC50
1,"FC(F)CN1CCC(COc2nc(Nc3ccc(N4CCOCC4)cc3)ncc2Cl)CC1 [Example 113, 5-chloro-4-((1-(2,2-difluoroethyl)piperidin-4-yl)methoxy)-N-(4-morpholino-phenyl) pyrimidin-2-amine]",< 50 nM
